Measured values reported in patent US20260042731A1, “(2,4-DICHLOROPHENOXY)ACETIC ACID ANALOGS” (CORTEVA AGRISCIENCE LLC, priority 2022, published 2026).
Read-outs that look alike come from different tables or passages of the source.

Assays:
[1] = Volatility of compounds measured by thermogravimetric analysis (TGA); format: physicochemical
[2] = test system: Abutilon theophrasti (ABUTH), velvetleaf; assay: Postemergence herbicide evaluation, growth of Abutilon theophrasti (ABUTH); format: in vivo; settings: Abutilon theophrasti, post-emergence, percent reduction in plant size relative to untreated control, read-out: AVE. ABUTH; for pest or weed control at 280 g/ha: 280 g ae/ha; for pest or weed control at 560 g/ha: 560 g ae/ha
[3] = test system: Chenopodium album (CHEAL), common lambsquarters; assay: Postemergence herbicide evaluation, growth of Chenopodium album (CHEAL); format: in vivo; settings: Chenopodium album, post-emergence, percent reduction in plant size relative to untreated control, read-out: Ave. CHEAL; for pest or weed control at 280 g/ha: 280 g ae/ha; for pest or weed control at 560 g/ha: 560 g ae/ha
[4] = test system: Amaranthus rudis (AMATA), tall water hemp; assay: Postemergence herbicide evaluation, growth of Amaranthus rudis (AMATA); format: in vivo; settings: Amaranthus tuberculatus, post-emergence, percent reduction in plant size relative to untreated control, read-out: Ave. AMATA; for pest or weed control at 280 g/ha: 280 g ae/ha; for pest or weed control at 560 g/ha: 560 g ae/ha
[5] = test system: glyphosate resistant Conyza canadensis (L.) (ERICA), horseweed; assay: Postemergence herbicide evaluation, growth of Conyza canadensis (ERICA); format: in vivo; settings: Erigeron canadensis, post-emergence, percent reduction in plant size relative to untreated control, read-out: Ave. ERICA; for pest or weed control at 280 g/ha: 280 g ae/ha; for pest or weed control at 560 g/ha: 560 g ae/ha
[6] = test system: Ambrosia artemisiifolia (AMBEL), common ragweed; assay: Postemergence herbicide evaluation, growth of Ambrosia artemisiifolia (AMBEL); format: in vivo; settings: Ambrosia artemisiifolia, post-emergence, percent reduction in plant size relative to untreated control, read-out: AVE. AMBEL; for pest or weed control at 280 g/ha: 280 g ae/ha; for pest or weed control at 560 g/ha: 560 g ae/ha
[7] = test system: weeds (ABUTH, AMATA, AMBEL, CHEAL, ERICA); assay: Postemergence herbicide evaluation, overall average % weed control across ABUTH, AMATA, AMBEL, CHEAL, ERICA; format: in vivo; settings: post-emergence, average over the five weeds, read-out: Overall Ave % Weed Control; for pest or weed control at 280 g/ha: 280 g ae/ha; for pest or weed control at 560 g/ha: 560 g ae/ha

SMILES | TGA Data (rate of weight loss, volatility) [1] [µg/min] | pest or weed control at 280 g/ha ([2]; 168 h, 7 DAA) [%] | pest or weed control at 560 g/ha ([2]; 168 h, 7 DAA) [%] | pest or weed control at 280 g/ha ([2]; 336 h, 14 DAA) [%] | pest or weed control at 560 g/ha ([2]; 336 h, 14 DAA) [%] | pest or weed control at 280 g/ha ([2]; 504 h, 21 DAA) [%] | pest or weed control at 560 g/ha ([2]; 504 h, 21 DAA) [%] | pest or weed control at 280 g/ha ([3]; 168 h, 7 DAA) [%] | pest or weed control at 560 g/ha ([3]; 168 h, 7 DAA) [%] | pest or weed control at 280 g/ha ([3]; 336 h, 14 DAA) [%] | pest or weed control at 560 g/ha ([3]; 336 h, 14 DAA) [%] | pest or weed control at 280 g/ha ([3]; 504 h, 21 DAA) [%] | pest or weed control at 560 g/ha ([3]; 504 h, 21 DAA) [%] | pest or weed control at 280 g/ha ([4]; 168 h, 7 DAA) [%] | pest or weed control at 560 g/ha ([4]; 168 h, 7 DAA) [%] | pest or weed control at 280 g/ha ([4]; 336 h, 14 DAA) [%] | pest or weed control at 560 g/ha ([4]; 336 h, 14 DAA) [%] | pest or weed control at 280 g/ha ([4]; 504 h, 21 DAA) [%] | pest or weed control at 560 g/ha ([4]; 504 h, 21 DAA) [%] | pest or weed control at 280 g/ha ([5]; 168 h, 7 DAA) [%] | further results
O=C(COc1ccc(Cl)cc1Cl)ON1C(=O)c2ccccc2C1=O [Compound A15, 1,3-Dioxoisoindolin-2-yl 2-(2,4-dichlorophenoxy)acetate] | 0.1 | 78 | 85 | 83 | 95 | 88 | 99 | 68 | 70 | 73 | 70 | 80 | 75 | 73 | 73 | 82 | 78 | 84 | 83 | 68 | pest or weed control at 560 g/ha ([5]; 168 h, 7 DAA): 65%; pest or weed control at 280 g/ha ([5]; 336 h, 14 DAA): 78%; pest or weed control at 560 g/ha ([5]; 336 h, 14 DAA): 88%; pest or weed control at 280 g/ha ([5]; 504 h, 21 DAA): 88%; pest or weed control at 560 g/ha ([5]; 504 h, 21 DAA): 95%; pest or weed control at 280 g/ha ([6]; 168 h, 7 DAA): 73%; pest or weed control at 560 g/ha ([6]; 168 h, 7 DAA): 75%; pest or weed control at 280 g/ha ([6]; 336 h, 14 DAA): 95%; pest or weed control at 560 g/ha ([6]; 336 h, 14 DAA): 88%; pest or weed control at 280 g/ha ([6]; 504 h, 21 DAA): 98%; pest or weed control at 560 g/ha ([6]; 504 h, 21 DAA): 95%; pest or weed control at 280 g/ha ([7]; 168 h, 7 DAA): 72%; pest or weed control at 560 g/ha ([7]; 168 h, 7 DAA): 74%; pest or weed control at 280 g/ha ([7]; 336 h, 14 DAA): 82%; pest or weed control at 560 g/ha ([7]; 336 h, 14 DAA): 84%; pest or weed control at 280 g/ha ([7]; 504 h, 21 DAA): 87%; pest or weed control at 560 g/ha ([7]; 504 h, 21 DAA): 89%
C/C(N)=N/OC(=O)COc1ccc(Cl)cc1Cl [Compound A12, N′-(2-(2,4-Dichlorophenoxy)acetoxy)acetimidamide] | 5.8 | 85 | 93 | 90 | 97 | 96 | 99 | 68 | 68 | 80 | 78 | 86 | 80 | 75 | 78 | 97 | 83 | 86 | 88 | 65 | pest or weed control at 560 g/ha ([5]; 168 h, 7 DAA): 68%; pest or weed control at 280 g/ha ([5]; 336 h, 14 DAA): 90%; pest or weed control at 560 g/ha ([5]; 336 h, 14 DAA): 91%; pest or weed control at 280 g/ha ([5]; 504 h, 21 DAA): 99%; pest or weed control at 560 g/ha ([5]; 504 h, 21 DAA): 97%; pest or weed control at 280 g/ha ([6]; 168 h, 7 DAA): 65%; pest or weed control at 560 g/ha ([6]; 168 h, 7 DAA): 75%; pest or weed control at 280 g/ha ([6]; 336 h, 14 DAA): 83%; pest or weed control at 560 g/ha ([6]; 336 h, 14 DAA): 96%; pest or weed control at 280 g/ha ([6]; 504 h, 21 DAA): 97%; pest or weed control at 560 g/ha ([6]; 504 h, 21 DAA): 99%; pest or weed control at 280 g/ha ([7]; 168 h, 7 DAA): 72%; pest or weed control at 560 g/ha ([7]; 168 h, 7 DAA): 76%; pest or weed control at 280 g/ha ([7]; 336 h, 14 DAA): 88%; pest or weed control at 560 g/ha ([7]; 336 h, 14 DAA): 89%; pest or weed control at 280 g/ha ([7]; 504 h, 21 DAA): 93%; pest or weed control at 560 g/ha ([7]; 504 h, 21 DAA): 92%
